Like-named read-outs stand apart in the source and are kept apart here. Residues, ends and D or L forms follow the SMILES beside them.
Target: hT1R2/T1R3mosaicA (UniProt Q8TE23+Q925D8, A12W/A31M/A558R/A588V/A645S/A698V/A702T/A793V/A807V/C582S/C678S/E16H/E725V/F14L/F29L/F541I/F612A/F622V/F695L/H728R/I36V/I60P/I617V/I706V/I740A/I803L/K30R/K555R/K565R/K818R/K827G/L17P/L560F/L684P/L735F/L823M/L825Q/M19T/M644L/M744T/N52R/N547G/N58S/N63T/N675D/P545F/P561R/P564S/P61V/Q32K/Q53S/Q550E/Q56R/Q611L/Q757R/Q795R/Q831P/R632Q/S22P/S45E/S576L/S595F/S610P/S635P/S637R/S679G/S717H/T46A/T50G/T542A/T663I/T694M/T813A/V573A/V584A/V718M/V723A/V729T/V738A/V805L/V812A/V821L/W599R/W676R/W824R/Y680C/Y794L)
Settings: HEK293E cells
Method: The HEK293E cells maintained by using the DMEM/Ham's F-12 medium (Nakarai Tesque) containing 10% fetal bovine serum ([…]) and 1% Pen Strep (GIBCO) were washed with D-PBS(−) (Nakarai Tesque), and collected from the flask by using 0.25% Trypsin EDTA (GIBCO). The cells were centrifuged (1,200 rpm, 3 minutes), and after the supernatant was removed, suspended in 5% FBS DMEM/Ham's F-12 at a density of 0.75×10^7 cell/ml. This suspension (10 ml) was put into a […] (IWAKI), and culture was performed overnight (37° C., 5% CO2). On the next day, the medium was exchanged with Opti-MEM (30 ml, Invitrogen, Life Technologies), a sweet taste receptor gene mixture (Gα15-trans48LD gene, various kinds of T1R2 chimeric genes, and various kinds of T1R3 chimeric genes, 63.8 μg in total) prepared by using Opti-MEM and Lipofectamin 2000 (Invitrogen, Life Technologies) was slowly added to the cell suspension, and incubation was performed (37° C., 5% CO2) for 6 hours to attain gene transfer.
After the gene transfer, the cells were washed with D-PBS(−), then removed from the flask by using 0.25% Trypsin EDTA (GIBCO), and collected. After the cell number was counted, the cells were suspended in the 5% FBS DMEM medium (2.78 mM glucose, GIBCO) at a density of 0.5×10^6 cell/ml. This cell suspension was put into wells of D-Lysine coat 96-well plate (BD bioscience) in such a volume that the cell count is 7.0×10^4 cells/well, and the cells were cultured overnight.
After the culture, all the medium of the 96 wells were discarded. 200 μl of the staining solution for measurement of intracellular calcium ion′ Calcium Assay Kit Express (Molecular Device), diluted 80 times with an assay buffer (20 mM HEPES, 146 mM NaCl, 1 mM MgSO4, 1.39 mM glucose, 1 mM CaC12, 2.5 mM Probenecid, 0.05% bovine serum albumin) was added to each well, and the plate was left standing at 37° C. for 30 minutes and at room temperature for 45 minutes to perform staining. After the staining, 50 μl of a solution of stimulant (sweet taste substance) prepared with the assay buffer was added to each well, and the fluorescence value was measured for 120 seconds after the stimulation by using FDSSμEELL (Hamamatsu Photonics). By measuring the fluorescence value (Ex. 480 nm, Em. 540 nm) before and after the stimulation, the change of the intracellular free calcium ion concentration caused by addition of the stimulant via a sweet taste receptor was quantitatively investigated. The measurement and analysis of the fluorescence value was performed by using the software attached to FDSSμEELL (FDSS7000EX), and ΔF/F value was calculated in accordance with the following equation, and used for the evaluation. ΔF/F=(Maximum fluorescence value after stimulation−Minimum fluorescence value after stimulation)/(Fluorescence value before stimulation)
Furthermore, by using the ΔF/F values obtained when each sweet taste substance was added, the S/N ratio was calculated. Specifically, the S/N value was calculated by using the minimum value of ΔF/F obtained when each substance was added at various concentrations as noise (N) value, and the similarly obtained maximum value of ΔF/F as the signal (S) value, and used as an index for sensitivity of the measurement of the activity of each receptor. That is, a higher S/N value means a higher sensitivity for detection of an interaction of a sweet taste receptor and a test substance, which makes it easier to detect stimulation with a sweet taste substance or sweet taste-regulating substance of a lower concentration.
The sweet taste substances used as the stimulating substance are acesulfame potassium (Tokyo Kasei Kogyo), sodium saccharin (WAKO), sucralose (SIGMA), sucrose (WAKO), and neotame (SIGMA), as well as aspartame, advantame, and SC-45647 ([3-[(S)-1-phenylethyl]-2-(4-cyanophenyl)guanidino]acetic acid, which were all synthesized in-house.

[1] = Table 5, genes hT2/T3mA (hT1R2, T1R3mA)
[2] = Table 6, genes hT2/T1R3mA (hT1R2, T1R3mA)

Chain of hT1R2/T1R3mosaicA (Q8TE23 20-839, stated change not applied): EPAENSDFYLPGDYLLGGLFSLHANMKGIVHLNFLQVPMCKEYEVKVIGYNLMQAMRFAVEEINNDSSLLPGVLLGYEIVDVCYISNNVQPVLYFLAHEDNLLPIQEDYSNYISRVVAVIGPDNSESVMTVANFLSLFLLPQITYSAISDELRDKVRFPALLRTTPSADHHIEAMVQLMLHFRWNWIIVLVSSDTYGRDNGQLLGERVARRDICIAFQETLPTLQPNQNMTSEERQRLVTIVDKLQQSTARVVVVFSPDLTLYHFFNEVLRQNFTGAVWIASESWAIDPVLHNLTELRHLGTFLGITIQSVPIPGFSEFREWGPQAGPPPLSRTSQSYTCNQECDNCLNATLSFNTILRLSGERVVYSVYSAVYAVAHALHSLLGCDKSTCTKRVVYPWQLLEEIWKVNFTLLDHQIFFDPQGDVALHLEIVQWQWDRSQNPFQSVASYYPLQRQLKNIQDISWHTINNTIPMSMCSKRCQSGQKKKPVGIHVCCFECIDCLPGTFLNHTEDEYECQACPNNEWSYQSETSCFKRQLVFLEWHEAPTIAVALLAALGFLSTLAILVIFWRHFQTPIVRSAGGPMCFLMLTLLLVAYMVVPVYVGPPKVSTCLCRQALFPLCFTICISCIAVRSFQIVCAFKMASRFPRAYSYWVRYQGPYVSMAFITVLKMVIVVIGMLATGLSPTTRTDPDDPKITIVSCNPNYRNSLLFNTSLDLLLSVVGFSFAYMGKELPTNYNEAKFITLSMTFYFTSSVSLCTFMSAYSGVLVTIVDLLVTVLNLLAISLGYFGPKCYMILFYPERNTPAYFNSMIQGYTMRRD
Chain of hT1R2/T1R3mosaicA (Q925D8 with tags, fused parts or gaps with the stated changes limits assumed): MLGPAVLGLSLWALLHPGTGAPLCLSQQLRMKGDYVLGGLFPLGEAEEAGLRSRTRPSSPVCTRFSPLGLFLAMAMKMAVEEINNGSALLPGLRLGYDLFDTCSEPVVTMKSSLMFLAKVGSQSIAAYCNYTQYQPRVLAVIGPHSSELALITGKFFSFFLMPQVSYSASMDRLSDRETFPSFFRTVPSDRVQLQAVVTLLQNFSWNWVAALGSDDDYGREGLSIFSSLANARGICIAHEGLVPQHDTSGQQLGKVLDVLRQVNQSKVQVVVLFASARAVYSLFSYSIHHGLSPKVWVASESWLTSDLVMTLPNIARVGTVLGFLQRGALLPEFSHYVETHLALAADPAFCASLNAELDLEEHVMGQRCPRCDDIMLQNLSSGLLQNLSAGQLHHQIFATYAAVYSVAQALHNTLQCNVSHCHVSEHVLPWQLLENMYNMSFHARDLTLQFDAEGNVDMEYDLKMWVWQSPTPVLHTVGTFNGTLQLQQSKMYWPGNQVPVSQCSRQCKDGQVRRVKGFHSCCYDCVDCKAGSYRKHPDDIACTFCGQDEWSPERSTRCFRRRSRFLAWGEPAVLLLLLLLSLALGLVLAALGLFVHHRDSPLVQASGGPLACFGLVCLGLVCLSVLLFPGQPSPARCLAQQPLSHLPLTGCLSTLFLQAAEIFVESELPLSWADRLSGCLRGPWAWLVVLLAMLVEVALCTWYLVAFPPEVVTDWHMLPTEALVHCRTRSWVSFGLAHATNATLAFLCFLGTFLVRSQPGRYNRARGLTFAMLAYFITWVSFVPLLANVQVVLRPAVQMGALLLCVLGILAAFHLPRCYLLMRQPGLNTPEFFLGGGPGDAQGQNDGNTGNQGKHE

Compound	S/N [1]	S/N [2]
OC[C@H]1O[C@H](O[C@]2(CCl)O[C@H](CCl)[C@@H](O)[C@@H]2O)[C@H](O)[C@@H](O)[C@H]1Cl [Sucralose, sucralose]	6.0	5.9
CC1=CC(=O)NS(=O)(=O)O1 [Acesulfame K, acesulfame potassium]	3.7	3.7
COC(=O)[C@H](Cc1ccccc1)NC(=O)[C@H](CC(=O)O)NCCCc1ccc(OC)c(O)c1 [Advantame, advantame]	7.6	7.5
OC[C@H]1O[C@@](CO)(O[C@H]2O[C@H](CO)[C@@H](O)[C@H](O)[C@H]2O)[C@@H](O)[C@@H]1O [Sucrose, sucrose]	2.6	2.3
COc1ccc(CCC(=O)c2c(O)cc(O[C@@H]3O[C@H](CO)[C@@H](O)[C@H](O)[C@H]3O[C@@H]3O[C@@H](C)[C@H](O)[C@@H](O)[C@H]3O)cc2O)cc1O [NHDC, neohesperidin dihydrochalcone]	2.9	3.8
COC(=O)[C@H](Cc1ccccc1)NC(=O)[C@H](CC(=O)O)NCCC(C)(C)C [Neotame, neotame]	5.7	6.5
C[C@H](NC(=Nc1ccc(C#N)cc1)NCC(=O)O)c1ccccc1 [SC-45647, [3-[(S)-1-phenylethyl]-2-(4-cyanophenyl)guanidino]acetic acid]	5.9	6.8
O=C1NS(=O)(=O)c2ccccc21.[Na] [Saccharin Na, sodium saccharin]	4.3	4.2
COC(=O)[C@H](Cc1ccccc1)NC(=O)[C@@H](N)CC(=O)O [Aspartame, aspartame] (HELM PEPTIDE1{D.F.[CO[*:1]]}$$$$V2.0)	4.4	3.5

Source: patent US9341616B2, “Sweet taste receptor chimeric proteins and use thereof” (AJINOMOTO CO., INC., priority 2014, dated 2016)
